Measured values as given in US12358918B2, “Aryl hydrocarbon receptor (AHR) activator compounds as cancer therapeutics” (THE BROAD INSTITUTE, INC., priority 2018, dated 2025).

Experiments:
[1] = test system: MDA-MB-468 and ZR51 breast cancer and JHH7 liver cancer cell lines
[2] = test system: MDA-MB-231 breast cancer cell lines; assay: cytotoxicity, control cells vs cells overexpressing CYP1A1; type: cell-based
Excerpt: The dependence of each compound's cytotoxic effects upon CYP1A1 was also examined, via screening of MDA-MB-231 breast cancer cell lines for cytotoxic response. The CYP1A1-dependence of the cytotoxic response of to each tested compound was specifically determined by comparing the cytotoxicity of each compound administered to control cells with that of the compound administered to corresponding cells that overexpressed CYP1A1. […]

[3] = test system: MDA-MB-468 breast cancer cells; assay: Western immunoblot of treated cells over 24 hours; type: cell-based; conditions: FIG. 18
Description: Adherent cells were washed once with cold 1×PBS (Corning #01018002) and lysed with RIPA buffer (Sigma #R0278) supplemented by protease and phosphatase inhibitors (Sigma). Protein content was quantified using the DC Protein Assay (BioRad #5000111). Samples were reduced with (loading buffer) and boiled at 95° C. before being resolved by SDS gel electrophoresis on 4-20% Tris/glycine gels (Invitrogen). Proteins were transferred using the IBlot2 (Thermo #IB21001) onto the iBlot™ 2 nitrocellulose Transfer Stacks (Thermo #IB23001). The membranes were then blocked in Odyssey Blocking Buffer (Li-COR #927-40000) for one hour, and then probed overnight with primary antibodies diluted in blocking buffer. The following day, membranes were washed 3×5 mins with 1×TBST and then probed with LiCOR Infrared secondary antibodies for 1 hour at room temperature. Membranes were washed an additional 3×5 mins in 1×TBST and then imaged using the LiCOR Imager. […]

SMILES | AHR-dependence of the cytotoxic response [1] | CYP1A1-dependence of the cytotoxic response [2] | CYP1A1 expression ([3]; 24 hour time course) | FOXA1 levels ([3]; 24 hour time course) | DNA double stranded breaks (pH2A.X) and PARP cleavage ([3]; within 24 hours)
O=c1[nH]c2ccc(Cl)c(Cl)c2c2nc(-c3ccco3)nn12 [A1] | dependence upon AHR | CYP1A1-dependent cytotoxic |  |  | 
Cn1cccc1-c1nc2c3cc(Cl)ccc3nc(N)n2n1 [BRO-018, 9-chloro-2-(1-methyl-1H-pyrrol-2-yl)-[1,2,4]triazolo[1,5-c]quinazolin-5-amine] | dependence upon AHR | CYP1A1-dependent cytotoxic |  |  | 
O=Cc1c2[nH]c3ccccc3c2cc2[nH]c3ccccc3c12 [FICZ, reference compound] | dependence upon AHR | CYP1A1-dependent cytotoxic |  |  | 
COc1cccc2nc(N)n3nc(-c4ccco4)nc3c12 [A16] | dependence upon AHR | CYP1A1-dependent cytotoxic |  |  | 
Nc1nc2ccc(F)cc2c2nc(-c3ccco3)nn12 [BRO-023, 9-fluoro-2-(furan-2-yl)-[1,2,4]triazolo[1,5-c]quinazolin-5-amine] | dependence upon AHR | CYP1A1-dependent cytotoxic |  |  | 
Cc1nc2cccc(Cl)c2c2nc(-c3ccco3)nn12 [B1] | dependence upon AHR | CYP1A1-dependent cytotoxic |  |  | 
Cc1nc2ccc(Cl)cc2c2nc(-c3ccco3)nn12 [B2] | dependence upon AHR | CYP1A1-dependent cytotoxic |  |  | 
Cc1nc2ccccc2c2nc(-c3ccoc3)nn12 [Z1222312995] | dependence upon AHR | CYP1A1-dependent cytotoxic |  |  | 
O=C1NC(=O)c2c1c1c3ccccc3[nH]c1c1[nH]c3ccccc3c21 [Arcyriaflavin A, reference compound] | dependence upon AHR | CYP1A1-dependent cytotoxic |  |  | 
Nc1nc2ccc(Br)cc2c2nc(-c3ccco3)nn12 [A14] | dependence upon AHR | CYP1A1-dependent cytotoxic |  |  | 
O=c1[nH]c2ccccc2c2nc(-c3ccco3)nn12 [2-(2-furyl)[1,2,4]triazolo[1,5-c]quinazolin-5(6H)-one] | dependence upon AHR | CYP1A1-dependent cytotoxic |  |  | 
c1coc(-c2nc3c4ccccc4ncn3n2)c1 [2-(2-furyl)[1,2,4]triazolo[1,5-c]quinazoline] | dependence upon AHR | CYP1A1-dependent cytotoxic |  |  | 
Clc1cccc2ncn3nc(-c4ccco4)nc3c12 [10-chloro-2-(2-furyl)[1,2,4]triazolo[1,5-c]quinazoline] | dependence upon AHR | CYP1A1-dependent cytotoxic |  |  | 
Cc1nc2cccc(C(F)(F)F)c2c2nc(-c3ccco3)nn12 [B3] | dependence upon AHR | CYP1A1-dependent cytotoxic |  |  | 
CSc1nc2ccccc2c2nc(-c3ccco3)nn12 [2-(2-furyl)-5-(methylsulfanyl)[1,2,4]triazolo[1,5-c]quinazoline] | dependence upon AHR | CYP1A1-dependent cytotoxic |  |  | 
Sc1nc2ccccc2c2nc(-c3ccco3)nn12 [2-(2-furyl)[1,2,4]triazolo[1,5-c]quinazolin-5-yl hydrosulfide] | dependence upon AHR | CYP1A1-dependent cytotoxic |  |  | 
c1ccc(-c2n[nH]c3c2oc2ccccc23)cc1 [GTP 14564, reference compound] | dependence upon AHR | CYP1A1-dependent cytotoxic |  |  | 
Cc1ccc(-c2nc3c4ccccc4nc(C)n3n2)o1 [B5] | dependence upon AHR | CYP1A1-dependent cytotoxic |  |  | 
COc1ccc2nc(N)n3nc(-c4ccco4)nc3c2c1 [A15] | dependence upon AHR | CYP1A1-dependent cytotoxic |  |  | 
Nc1nc2cccc(Cl)c2c2nc(-c3ccco3)nn12 [BRO-027, 10-chloro-2-(furan-2-yl)-[1,2,4]triazolo[1,5-c]quinazolin-5-amine] | dependence upon AHR | CYP1A1-dependent cytotoxic |  |  | 
Cc1nc2cnccc2c2nc(-c3ccco3)nn12 [B7] | dependence upon AHR | CYP1A1-dependent cytotoxic |  |  | 
Nc1nc2cccc(F)c2c2nc(-c3ccco3)nn12 [A17] | dependence upon AHR | CYP1A1-dependent cytotoxic |  |  | 
Nc1nc2cccc(C(F)(F)F)c2c2nc(-c3ccco3)nn12 [A2] | dependence upon AHR | CYP1A1-dependent cytotoxic |  |  | 
Nc1nc2cc(Cl)ccc2c2nc(-c3ccco3)nn12 [BRO-026, 8-chloro-2-(furan-2-yl)-[1,2,4]triazolo[1,5-c]quinazolin-5-amine] | dependence upon AHR | CYP1A1-dependent cytotoxic |  |  | 
COc1cccc2c1C(=O)c1c(O)c3c(c(O)c1C2=O)C[C@@](O)(C(=O)CO)C[C@@H]3O[C@H]1C[C@H](N)[C@H](O)[C@H](C)O1 [doxorubicin] |  |  | no detectable induction of CYP1A1 expression | decline in FOXA1 levels | induced DNA double stranded breaks
CC(C)c1ccc2nc(N)n3nc(-c4ccco4)nc3c2c1 [BRO-025, 2-(furan-2-yl)-9-isopropyl-[1,2,4]triazolo[1,5-c]quinazolin-5-amine] | dependence upon AHR | CYP1A1-dependent cytotoxic |  |  | 
COc1ccc(CCCn2ncc3c2nc(N)n2nc(-c4ccco4)nc32)cc1 [SCH 442416, reference compound] | dependence upon AHR | CYP1A1-dependent cytotoxic |  |  | 
Nc1nc2ccc(C(F)(F)F)cc2c2nc(-c3ccco3)nn12 [BRO-024, 2-(furan-2-yl)-9-(trifluoromethyl)-[1,2,4]triazolo[1,5-c]quinazolin-5-amine] | dependence upon AHR | CYP1A1-dependent cytotoxic |  |  | 
